Data reported in ChEMBL document CHEMBL1201862, “PubChem BioAssay data set” (2004).
Activity calls are given as the source filed them.

Columns and labels:
[1] = Late stage counterscreen results from the probe development effort to identify activators of signal transducer and activator of transcription 1 (STAT1): luminescence-based cell-based dose response assay to identify cytotoxic compounds.; format: functional
[2] = target: T1, Endoribonuclease toxin MazF (Escherichia coli K-12, UniProt P0AE70); experiment: activation of MazEF endoribonuclease cleavage – biochemical, fluorescence, single-stranded RNA substrate, uHTS hits, dose response (AID 588481); format: functional
T1 sequence (P0AE70 whole entry): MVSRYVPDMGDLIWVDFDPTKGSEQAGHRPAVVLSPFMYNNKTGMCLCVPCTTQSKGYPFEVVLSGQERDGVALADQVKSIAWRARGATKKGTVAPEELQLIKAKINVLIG

[3] = target: T1, Endoribonuclease toxin MazF; experiment: substrate-only fluorescence increase artefacts – biochemical, single-stranded RNase substrate, counter-screen for MazEF activator project, dose response (AID 588502); format: functional
NADPH oxidase 1 = NADPH oxidase 1 (Homo sapiens, UniProt Q9Y5S8); format: functional, cell-based;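 also: Cell-based assay with luminescence read-out, IC50 derived from inhibitor dose-response curves; intracellular ROS from endogenous NOX1 in intact HT29 colon cancer cells; potency of inhibitors that lower the ROS luminescence signal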
Bcl-2-like protein 10 = target: T2, Bcl-2-like protein 10 (Homo sapiens, UniProt Q9HD36); experiment: Bcl-B/TR3 peptide binding disruption – biochemical, fluorescence polarization, FITC-TR3 peptide, selectivity assay for Bfl-1 inhibitor project, primary screen (AID 748);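 also: fluorescence polarization from a fluorescein-labelled TR3 peptide binding purified Bcl-B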
T2 sequence (Q9HD36 whole entry): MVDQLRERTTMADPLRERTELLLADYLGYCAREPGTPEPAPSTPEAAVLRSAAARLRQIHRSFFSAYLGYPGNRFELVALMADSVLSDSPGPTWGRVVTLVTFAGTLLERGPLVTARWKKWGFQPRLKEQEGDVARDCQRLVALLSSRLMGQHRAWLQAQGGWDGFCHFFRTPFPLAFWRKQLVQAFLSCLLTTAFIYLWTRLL

[4] = target: Protein-tyrosine kinase 2-beta (Homo sapiens, UniProt Q14289);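 also: potency of inhibitors of PYK2 kinase phosphorylation of poly-GT substrate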
[5] = target: T3, Induced myeloid leukemia cell differentiation protein Mcl-1 (Homo sapiens, UniProt Q07820); format: functional
[6] = target: T4, Tyrosine-protein phosphatase non-receptor type 7 (Homo sapiens, UniProt P35236); experiment: HePTP tyrosine phosphatase activity blockers – biochemical, absorbance, leukemia target, primary screen (AID 521); format: functional
T4 sequence (P35236 whole entry): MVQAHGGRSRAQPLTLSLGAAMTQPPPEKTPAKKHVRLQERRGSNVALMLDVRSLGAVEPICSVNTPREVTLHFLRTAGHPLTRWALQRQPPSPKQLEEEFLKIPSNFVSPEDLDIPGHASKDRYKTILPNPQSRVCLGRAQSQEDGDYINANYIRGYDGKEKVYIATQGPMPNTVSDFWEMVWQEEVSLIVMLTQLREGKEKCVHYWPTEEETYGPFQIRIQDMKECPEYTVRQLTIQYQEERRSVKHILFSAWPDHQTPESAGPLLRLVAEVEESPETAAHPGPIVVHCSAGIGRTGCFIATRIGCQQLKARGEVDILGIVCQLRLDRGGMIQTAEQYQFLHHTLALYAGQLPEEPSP

[7] = HPDE-C7 pancreatic duct cell viability loss – fluorescence, HTS (AID 430); format: functional, cell-based; conditions: Homo sapiens
[8] = viability loss of HPDE-C7K cells – cell-based, fluorescence, HTS, primary screen (AID 431); format: functional; conditions: Homo sapiens
Estrogen receptor beta [9] = target: T5, Estrogen receptor beta (Homo sapiens, UniProt Q92731);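 also: recombinant ER-beta bound to coactivator SRC1 peptide in presence of estradiol agonist; inhibitors block coactivator peptide binding and lower the FRET signal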
Estrogen receptor beta [10] = target: T5, Estrogen receptor beta; experiment: blockers of SRC-3 recruitment to ERβ – biochemical, ELISA, streptavidin-HRP readout, orthogonal assay, confirmation (AID 1060)
[11] = target: T6, Heat shock factor protein 1 (Mus musculus, UniProt P38532); experiment: enhancement of HSF1-driven luciferase signal – cell-based, NIH3T3, luminescence, dose retest, confirmation (AID 435004); format: functional;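 also: stress induced by proteasome inhibitor MG132 added 30 min after compound; luciferase reporter driven by HSF1 response element in NIH3T3 cells; actives raise luminescence as potentiators of the MG132 stress response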
T6 sequence (P38532 whole entry): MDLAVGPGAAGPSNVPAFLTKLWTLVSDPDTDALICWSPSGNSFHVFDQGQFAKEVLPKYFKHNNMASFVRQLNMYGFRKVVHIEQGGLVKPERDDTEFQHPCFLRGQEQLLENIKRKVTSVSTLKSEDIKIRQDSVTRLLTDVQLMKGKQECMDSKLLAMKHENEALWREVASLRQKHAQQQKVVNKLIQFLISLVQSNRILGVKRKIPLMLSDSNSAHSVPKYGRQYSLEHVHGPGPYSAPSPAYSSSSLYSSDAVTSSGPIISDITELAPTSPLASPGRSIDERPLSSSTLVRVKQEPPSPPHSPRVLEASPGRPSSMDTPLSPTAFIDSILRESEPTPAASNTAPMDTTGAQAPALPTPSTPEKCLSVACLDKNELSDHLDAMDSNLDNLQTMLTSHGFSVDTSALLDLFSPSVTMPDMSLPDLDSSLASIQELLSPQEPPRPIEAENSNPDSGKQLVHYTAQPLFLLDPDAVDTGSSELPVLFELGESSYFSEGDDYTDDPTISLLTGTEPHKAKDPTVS

Cytochrome P450 2D6 = Cytochrome P450 2D6 (Homo sapiens, UniProt P10635);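 also: CYP2D6 member of a cytochrome P450 panel assay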
[12] = target: T6, Heat shock factor protein 1; experiment: decrease of HSF1-responsive luciferase luminescence – cell-based, NIH3T3, dose retest, confirmation (AID 2382); format: functional;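 also: NIH3T3 fibroblasts with HSF1-driven luciferase reporter stressed by proteasome inhibitor MG132; luminescence from HSF1-driven luciferase expression after 8 hours of MG132 stress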
[13] = target: T7, Mannose-6-phosphate isomerase (Homo sapiens, UniProt P34949); experiment: MPI enzyme activity inhibition – biochemical, fluorescence intensity, coupled assay, primary screen (AID 1209)
T7 sequence (P34949 whole entry): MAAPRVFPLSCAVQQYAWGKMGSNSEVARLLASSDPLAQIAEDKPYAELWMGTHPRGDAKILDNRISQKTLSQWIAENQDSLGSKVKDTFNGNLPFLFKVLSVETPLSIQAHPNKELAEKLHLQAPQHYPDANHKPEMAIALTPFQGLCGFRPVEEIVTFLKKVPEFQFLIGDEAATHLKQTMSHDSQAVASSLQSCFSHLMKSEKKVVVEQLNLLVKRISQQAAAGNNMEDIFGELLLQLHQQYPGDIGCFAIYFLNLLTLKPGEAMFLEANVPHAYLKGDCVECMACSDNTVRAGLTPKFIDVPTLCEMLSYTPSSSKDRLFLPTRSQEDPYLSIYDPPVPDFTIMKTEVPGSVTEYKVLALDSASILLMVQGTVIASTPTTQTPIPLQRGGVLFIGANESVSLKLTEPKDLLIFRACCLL

[14] = target: T7, Mannose-6-phosphate isomerase; experiment: MPI inhibition at elevated mannose 6-phosphate – biochemical, fluorescence intensity, high mannose 6-phosphate, primary screen (AID 1220)
Nonstructural protein 1 = Nonstructural protein 1 (Influenza A virus, UniProt Q194T2); format: functional, Influenza A virus (A/California/07/2009(H1N1))
INS1 = experiment: INS-1E survival protection against cytokine death – cell-based, luminescence, retest, dose response (AID 449756); format: functional; conditions: Rattus norvegicus;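 also: cell death triggered by IL-1 beta plus TNF-alpha plus IFN-gamma mixture; protective hits raise ATP signal compared with cytokine alone wells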
[15] = target: T8, Polyadenylate-binding protein 1 (Homo sapiens, UniProt P11940); experiment: MLLE binding blockers, Cy5 peptide tracer – biochemical, fluorescence polarization, Cy5-PAM2 peptide, secondary, miRNA deadenylation inhibitor project, dose response (AID 602260); format: functional; conditions: read-out: IC50_Mean
[16] = reduction of Shn3 3'UTR-driven luciferase in osteoblasts – cell-based, Clone20 osteoblasts, firefly luciferase, cherry-picked, dose response (AID 624132); format: functional;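 also: firefly luciferase luminescence from reporter carrying the Shn3 3'UTR in osteoblasts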
[17] = target: T8, Polyadenylate-binding protein 1; experiment: MLLE domain peptide-binding blockers, IC50 – biochemical, fluorescence polarization, FITC-PAM2 peptide, dose response (AID 602259); format: functional; conditions: read-out: IC50_Mean
[18] = loss of viability in HepG2 cells – cell-based, CellTiter-Glo, cherry-picked, cytotoxicity control for Shn3 inhibitor project, dose response (AID 624134); format: functional
[19] = non-specific 3'UTR reporter inhibition in Clone20-Shn3RL – cell-based, Renilla luciferase, cherry-picked, counter-screen for Shn3 inhibitor project, dose response (AID 624133); format: functional
[20] = target: T3, Induced myeloid leukemia cell differentiation protein Mcl-1; experiment: blockers of MCL1 binding to BIM peptide – biochemical, fluorescence polarization, BIM-BH3 peptide, 1536-well, dose response (AID 2217)
Bcl-2-like protein 1 = Bcl-2-like protein 1 (Homo sapiens, UniProt Q07817); experiment: blockers of BCLXL peptide binding – biochemical, fluorescence polarization, 1536-well, selectivity assay for MCL1 inhibitor project, dose response (AID 2218)
Genome polyprotein = Genome polyprotein (dengue virus type 2, UniProt P29990); experiment: flavivirus cap methylation enzyme inhibition – biochemical, confirmation dose response, primary screen (AID 588689); format: functional
[21] = target: Peroxisome proliferator-activated receptor gamma/Nuclear receptor coactivator 1 (Homo sapiens, UniProt P37231); experiment: (§1) TR-FRET dose response biochemical High Throughput Screening assay for agonists of the steroid receptor coactivator 1 (SRC-1) recruitment by the peroxisome proliferator-activated receptor gamma (PPAR gamma): non-selective agonists. [Related pubchem assays (depositor defined):AID1300, AID1808, AID504735, AID631]; format: protein assay
[22] = target: Peroxisome proliferator-activated receptor gamma/Nuclear receptor coactivator 3 (Homo sapiens, UniProt P37231); experiment: as §1, with “3 (SRC-3)” for “1 (SRC-1)”, “assays: 1301 (Confirmation screen.), 1048 (Primary screen.)]” for “assays (depositor defined):AID1300, AID1808, AID504735, AID631]”; format: functional
[23] = RAM pathway signaling blockade in S. cerevisiae – dose response (AID 1307); format: functional
[24] = target: Peroxisome proliferator-activated receptor gamma/Nuclear receptor coactivator 2 (Homo sapiens, UniProt P37231); experiment: TR-FRET dose response biochemical High Throughput Screening assay for agonists of the steroid receptor coactivator 2 (SRC-2) recruitment by the peroxisome proliferator-activated receptor gamma (PPAR gamma): non-selective agonists. [Related pubchem assays: 1297, 1032 ]; format: functional
[25] = target: 26S proteasome non-ATPase regulatory subunit 14 (Homo sapiens, UniProt O00487); experiment: inhibition of proteasome subunit RPN11 – biochemical, fluorescence polarization, uHTS hits, confirmation (AID 602368); format: functional
[26] = target: 72 kDa type IV collagenase (Homo sapiens, UniProt P08253); experiment: Dose Response validation of uHTS RPN11 inhibitor hits using a MMP-2 Fluorescence assay.; format: functional
Prothrombin = Prothrombin (Bos taurus, UniProt P00735); experiment: thrombin protease inhibitors – biochemical, fluorescence polarization, uHTS hits, dose response (AID 602369); format: functional
[27] = target: Sphingosine 1-phosphate receptor 2 (Homo sapiens, UniProt O95136); experiment: Dose Response Cell Based Assay for Agonists of the S1P2 Receptor of Purchased Analogues. [Related pubchem assays: 729, 843, 854, 736 ]; format: functional
Sequence of Sphingosine 1-phosphate receptor 2 (O95136 whole entry): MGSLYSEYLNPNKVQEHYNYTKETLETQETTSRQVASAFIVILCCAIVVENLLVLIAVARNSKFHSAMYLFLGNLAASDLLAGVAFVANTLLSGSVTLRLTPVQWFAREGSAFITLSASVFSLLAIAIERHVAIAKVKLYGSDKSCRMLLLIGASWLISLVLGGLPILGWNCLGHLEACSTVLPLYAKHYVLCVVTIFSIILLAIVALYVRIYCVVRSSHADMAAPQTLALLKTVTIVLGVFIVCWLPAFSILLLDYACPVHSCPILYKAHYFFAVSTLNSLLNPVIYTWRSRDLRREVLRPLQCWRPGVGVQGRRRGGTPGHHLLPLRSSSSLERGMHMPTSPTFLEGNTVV

T8 sequence (P11940 whole entry): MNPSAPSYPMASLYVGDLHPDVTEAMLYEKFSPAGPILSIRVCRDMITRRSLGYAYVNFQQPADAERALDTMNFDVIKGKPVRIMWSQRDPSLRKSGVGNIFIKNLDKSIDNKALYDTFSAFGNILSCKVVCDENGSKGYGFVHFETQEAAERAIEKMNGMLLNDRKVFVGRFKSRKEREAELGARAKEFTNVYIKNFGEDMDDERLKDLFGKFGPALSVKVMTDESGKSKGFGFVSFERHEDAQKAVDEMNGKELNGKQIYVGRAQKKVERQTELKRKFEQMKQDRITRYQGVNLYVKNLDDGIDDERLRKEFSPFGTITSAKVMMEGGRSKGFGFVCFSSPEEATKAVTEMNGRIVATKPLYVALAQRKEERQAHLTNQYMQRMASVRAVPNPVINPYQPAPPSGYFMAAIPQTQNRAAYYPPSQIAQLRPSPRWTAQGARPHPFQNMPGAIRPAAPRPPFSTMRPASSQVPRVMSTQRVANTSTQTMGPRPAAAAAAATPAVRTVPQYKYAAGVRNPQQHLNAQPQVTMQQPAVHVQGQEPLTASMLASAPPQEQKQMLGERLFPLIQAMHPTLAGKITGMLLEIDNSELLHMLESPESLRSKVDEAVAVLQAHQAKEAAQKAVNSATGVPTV
T3 sequence (Q07820 whole entry): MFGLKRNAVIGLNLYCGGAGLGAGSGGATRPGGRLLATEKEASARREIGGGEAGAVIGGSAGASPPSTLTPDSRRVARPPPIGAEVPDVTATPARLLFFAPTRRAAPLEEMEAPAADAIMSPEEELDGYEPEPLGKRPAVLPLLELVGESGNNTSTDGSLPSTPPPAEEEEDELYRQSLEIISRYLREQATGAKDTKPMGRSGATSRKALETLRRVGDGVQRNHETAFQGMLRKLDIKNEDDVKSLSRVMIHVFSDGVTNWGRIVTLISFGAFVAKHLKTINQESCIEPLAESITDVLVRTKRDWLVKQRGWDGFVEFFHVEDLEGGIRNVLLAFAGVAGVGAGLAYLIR
T5 sequence (Q92731 whole entry): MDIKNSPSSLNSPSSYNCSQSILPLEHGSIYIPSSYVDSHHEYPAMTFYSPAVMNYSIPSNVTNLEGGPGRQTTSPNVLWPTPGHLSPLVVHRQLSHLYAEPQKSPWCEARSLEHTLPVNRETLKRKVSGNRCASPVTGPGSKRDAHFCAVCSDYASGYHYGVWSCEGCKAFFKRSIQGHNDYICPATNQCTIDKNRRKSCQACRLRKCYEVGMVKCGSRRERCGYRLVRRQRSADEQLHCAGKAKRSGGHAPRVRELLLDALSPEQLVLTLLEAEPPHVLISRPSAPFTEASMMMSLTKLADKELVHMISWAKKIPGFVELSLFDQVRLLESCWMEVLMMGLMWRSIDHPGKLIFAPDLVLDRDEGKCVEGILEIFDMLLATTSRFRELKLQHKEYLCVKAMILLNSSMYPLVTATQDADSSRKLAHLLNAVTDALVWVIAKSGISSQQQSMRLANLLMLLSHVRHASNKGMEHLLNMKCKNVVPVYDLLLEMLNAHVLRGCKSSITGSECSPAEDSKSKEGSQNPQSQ
Sequence of Nonstructural protein 1 (Q194T2 whole entry): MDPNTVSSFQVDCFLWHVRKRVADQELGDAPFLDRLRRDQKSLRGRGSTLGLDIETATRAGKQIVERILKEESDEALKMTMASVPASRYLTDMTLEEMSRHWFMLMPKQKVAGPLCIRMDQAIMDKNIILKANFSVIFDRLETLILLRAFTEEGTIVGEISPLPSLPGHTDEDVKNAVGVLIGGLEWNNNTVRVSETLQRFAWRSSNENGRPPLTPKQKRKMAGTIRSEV
Sequence of 26S proteasome non-ATPase regulatory subunit 14 (O00487 whole entry): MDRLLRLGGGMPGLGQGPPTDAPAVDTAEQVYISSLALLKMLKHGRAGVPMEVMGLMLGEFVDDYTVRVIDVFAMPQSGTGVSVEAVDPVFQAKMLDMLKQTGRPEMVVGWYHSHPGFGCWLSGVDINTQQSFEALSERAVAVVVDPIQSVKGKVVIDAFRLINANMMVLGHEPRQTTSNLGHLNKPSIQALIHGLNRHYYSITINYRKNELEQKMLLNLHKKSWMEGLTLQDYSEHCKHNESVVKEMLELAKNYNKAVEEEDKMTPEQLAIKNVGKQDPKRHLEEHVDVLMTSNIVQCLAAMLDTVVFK
Sequence of Genome polyprotein (P29990 2492-3391 limits assumed): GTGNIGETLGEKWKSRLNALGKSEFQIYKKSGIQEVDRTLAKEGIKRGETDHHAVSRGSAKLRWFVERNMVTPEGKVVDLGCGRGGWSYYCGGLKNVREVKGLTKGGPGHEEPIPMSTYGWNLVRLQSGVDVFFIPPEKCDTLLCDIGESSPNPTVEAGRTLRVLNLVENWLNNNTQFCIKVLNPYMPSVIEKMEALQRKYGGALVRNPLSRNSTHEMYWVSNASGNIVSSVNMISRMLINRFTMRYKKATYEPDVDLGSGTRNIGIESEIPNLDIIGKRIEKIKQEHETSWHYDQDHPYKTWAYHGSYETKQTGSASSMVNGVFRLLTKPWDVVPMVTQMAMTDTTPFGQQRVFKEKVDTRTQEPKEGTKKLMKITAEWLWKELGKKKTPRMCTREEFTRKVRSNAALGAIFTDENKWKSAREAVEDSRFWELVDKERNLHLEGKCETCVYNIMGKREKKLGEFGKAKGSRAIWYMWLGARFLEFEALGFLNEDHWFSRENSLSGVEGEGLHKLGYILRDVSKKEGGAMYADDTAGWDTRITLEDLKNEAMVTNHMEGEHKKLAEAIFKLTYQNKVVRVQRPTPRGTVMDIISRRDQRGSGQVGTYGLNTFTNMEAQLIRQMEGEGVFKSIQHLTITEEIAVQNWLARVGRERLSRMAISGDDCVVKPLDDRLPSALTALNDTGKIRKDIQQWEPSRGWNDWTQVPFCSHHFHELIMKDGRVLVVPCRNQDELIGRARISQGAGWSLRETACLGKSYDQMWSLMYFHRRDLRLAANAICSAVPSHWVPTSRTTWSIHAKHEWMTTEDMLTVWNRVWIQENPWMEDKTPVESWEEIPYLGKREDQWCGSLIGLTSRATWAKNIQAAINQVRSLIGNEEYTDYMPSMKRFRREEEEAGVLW
Sequence of Protein-tyrosine kinase 2-beta (Q14289 whole entry): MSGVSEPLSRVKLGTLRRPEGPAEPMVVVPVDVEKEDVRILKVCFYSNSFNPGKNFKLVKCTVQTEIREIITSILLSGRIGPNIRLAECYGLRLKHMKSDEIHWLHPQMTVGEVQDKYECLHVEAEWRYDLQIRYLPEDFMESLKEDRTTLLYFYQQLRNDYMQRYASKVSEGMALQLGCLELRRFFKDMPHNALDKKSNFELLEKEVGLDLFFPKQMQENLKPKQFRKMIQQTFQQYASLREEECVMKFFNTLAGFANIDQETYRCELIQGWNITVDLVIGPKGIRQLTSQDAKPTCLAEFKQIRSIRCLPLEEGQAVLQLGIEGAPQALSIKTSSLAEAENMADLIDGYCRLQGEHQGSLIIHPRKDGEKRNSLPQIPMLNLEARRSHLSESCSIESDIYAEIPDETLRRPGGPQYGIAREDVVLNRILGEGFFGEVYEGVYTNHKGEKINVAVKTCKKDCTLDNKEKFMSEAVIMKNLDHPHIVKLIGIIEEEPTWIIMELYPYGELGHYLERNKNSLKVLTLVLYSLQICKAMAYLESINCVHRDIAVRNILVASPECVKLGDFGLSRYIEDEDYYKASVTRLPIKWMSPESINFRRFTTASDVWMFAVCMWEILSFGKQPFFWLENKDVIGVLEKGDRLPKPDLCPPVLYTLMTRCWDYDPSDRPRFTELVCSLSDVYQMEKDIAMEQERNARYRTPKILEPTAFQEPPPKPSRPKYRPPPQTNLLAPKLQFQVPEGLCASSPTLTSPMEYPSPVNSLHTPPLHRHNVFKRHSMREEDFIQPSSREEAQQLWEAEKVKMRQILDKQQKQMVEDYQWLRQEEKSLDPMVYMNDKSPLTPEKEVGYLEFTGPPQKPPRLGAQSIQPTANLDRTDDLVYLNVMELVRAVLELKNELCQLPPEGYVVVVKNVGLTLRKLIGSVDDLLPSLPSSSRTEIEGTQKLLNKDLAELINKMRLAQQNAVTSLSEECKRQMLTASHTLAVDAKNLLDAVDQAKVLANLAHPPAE
Sequence of 72 kDa type IV collagenase (P08253 whole entry): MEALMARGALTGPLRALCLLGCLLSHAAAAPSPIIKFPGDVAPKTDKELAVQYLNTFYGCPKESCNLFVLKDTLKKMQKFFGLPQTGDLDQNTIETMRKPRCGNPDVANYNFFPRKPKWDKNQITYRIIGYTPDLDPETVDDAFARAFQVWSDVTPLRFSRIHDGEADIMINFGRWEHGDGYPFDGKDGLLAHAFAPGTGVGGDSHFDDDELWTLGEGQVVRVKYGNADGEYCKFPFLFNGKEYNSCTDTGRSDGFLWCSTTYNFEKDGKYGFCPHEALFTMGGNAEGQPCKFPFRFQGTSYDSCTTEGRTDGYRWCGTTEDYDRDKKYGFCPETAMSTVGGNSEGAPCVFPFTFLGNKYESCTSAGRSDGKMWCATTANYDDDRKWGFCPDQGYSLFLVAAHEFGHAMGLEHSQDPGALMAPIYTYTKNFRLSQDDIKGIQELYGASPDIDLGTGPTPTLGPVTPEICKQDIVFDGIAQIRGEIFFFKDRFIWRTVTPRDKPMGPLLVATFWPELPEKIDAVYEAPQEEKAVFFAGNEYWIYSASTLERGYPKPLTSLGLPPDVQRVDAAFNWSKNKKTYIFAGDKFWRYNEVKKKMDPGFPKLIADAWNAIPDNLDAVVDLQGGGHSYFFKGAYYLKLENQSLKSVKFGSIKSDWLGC

Compound: CCN(CC)c1ccc2cc(C(=O)Nc3ccccn3)c(=O)oc2c1
- IC50 [1]: > 55.7 µM (not active)
- EC50 [2]: > 99 µM (inactive)
- EC50 [3]: > 99 µM (inactive)

Compound: O=C(CCC(=O)Nc1ccccc1)Nc1ccccc1
- IC50 (NADPH oxidase 1): > 17 µM (not active)

Compound: Cn1c(SCC(=O)Nc2ccc3nc(SCC(=O)N4CCCC4)sc3c2)nnc1-c1ccc(N)cc1
- IC50 (Bcl-2-like protein 10): 58.3 µM (inactive)
- IC50 [4]: 2.5 µM (active)
- IC50 [5]: 1.82 µM (active)

Compound: CCn1c(SCC(=O)N2CCOCC2)nc2oc3c(Cl)cc(Cl)cc3c(=O)c2c1=O
- IC50 [6]: > 100 µM (not active)
- EC50 [7]: > 20 µM (not active)
- EC50 [8]: > 20 µM (not active)
- IC50 (Estrogen receptor beta [9]): 17.2 µM (active)
- IC50 (Estrogen receptor beta [10]): 13.3 µM (not active)
- EC50 [11]: 16.1 µM (inconclusive)
- AC50 (Cytochrome P450 2D6): 15.8 µM (inconclusive)

Compound: Oc1ccc(CN2CCCc3ccccc32)c2cccnc12
- EC50 [12]: 29 µM (active)
- IC50 [13]: > 50 µM (not active)
- IC50 [14]: > 50 µM (not active)
- IC50 (Nonstructural protein 1): 32.2 µM (active)
- AC50 (INS1): 11.8 µM (active)
- IC50 [15]: > 66 µM (inactive)
- AC50 [16]: 5.4 µM (active)
- IC50 [17]: > 66 µM (inactive)
- AC50 [18]: 8.25 µM (active)
- AC50 [19]: 17.3 µM (active)

Compound: CCc1sc(C(C2C(=O)CC(C)(C)CC2=O)C2C(=O)CC(C)(C)CC2=O)cc1[N+](=O)[O-]
- IC50 [20]: 6.08 µM (active)
- IC50 (Bcl-2-like protein 1): > 109 µM (not active)
- IC50 (Genome polyprotein): 16.4 µM (active)

Compound: CN(C)c1ccc(/C=C/C=C2/C(=O)NC(=O)N(c3ccccc3)C2=O)cc1
- EC50 [21]: > 2.94 µM (inactive)
- EC50 [22]: > 79.4 µM (not active)
- IC50 [23]: 317 µM (active)
- EC50 [24]: 4.13 µM (active)
- IC50 (Nonstructural protein 1): 12.1 µM (active)
- IC50 [25]: 28.2 µM (active)
- IC50 [26]: 71.2 µM (active)
- IC50 (Prothrombin): 19.6 µM (active)

Compound: Cc1cc(C(=O)Cn2cnc3c(oc4ccccc43)c2=O)c(C)n1Cc1ccccc1
- EC50 [27]: > 30 µM (not active)
